Test: Titration pKa' in 66 percent DMF
Format: physicochemical

SMILES | pKa' | pKa' (first value) | pKa' (third printed value)
CCC1(O)CC2CN(CCc3c([nH]c4ccccc34)C(C(=O)OC)(c3cc4c(cc3OC)N(C)C3C(O)(C(=O)NCCCCNC(=O)C5(O)C(O)C6(CC)C=CCN7CCC8(c9cc(C%10(C(=O)OC)CC%11CN(CCc%12c%10[nH]c%10ccccc%12%10)CC(O)(CC)C%11)c(OC)cc9N(C)C58)C76)C(O)C5(CC)C=CCN6CCC43C65)C2)C1 (stereo not drawn) [1,4-bis(4-desacetyl VLB C-3 carboxamido)butane] | 7.5 | 6.6 | 
CCC1(O)CC2CN(CCc3c([nH]c4ccccc34)C(C(=O)OC)(c3cc4c(cc3OC)N(C)C3C(O)(C(=O)NCCCCCCNC(=O)C5(O)C(O)C6(CC)C=CCN7CCC8(c9cc(C%10(C(=O)OC)CC%11CN(CCc%12c%10[nH]c%10ccccc%12%10)CC(O)(CC)C%11)c(OC)cc9N(C)C58)C76)C(O)C5(CC)C=CCN6CCC43C65)C2)C1 (stereo not drawn) [1,6-bis(4-desacetyl VLB C-3 carboxamido)hexane] | 7.27 | 5.27 | 
CCC1(O)CC2CN(CCc3c([nH]c4ccccc34)C(C(=O)OC)(c3cc4c(cc3OC)N(C)C3C(O)(C(=O)NCC[Se][Se]CCNC(=O)C5(O)C(O)C6(CC)C=CCN7CCC8(c9cc(C%10(C(=O)OC)CC%11CN(CCc%12c%10[nH]c%10ccccc%12%10)CC(O)(CC)C%11)c(OC)cc9N(C)C58)C76)C(O)C5(CC)C=CCN6CCC43C65)C2)C1 (stereo not drawn) [bis[β-(4-desacetyl VLB C-3 carboxamido)ethyl]diselenide] | 7.22 | 5.10 | 
CCC1(O)CC2CN(CCc3c([nH]c4ccccc34)C(C(=O)OC)(c3cc4c(cc3OC)N(C)C3C(O)(C(=O)NCCOCCNC(=O)C5(O)C(O)C6(CC)C=CCN7CCC8(c9cc(C%10(C(=O)OC)CC%11CN(CCc%12c%10[nH]c%10ccccc%12%10)CC(O)(CC)C%11)c(OC)cc9N(C)C58)C76)C(O)C5(CC)C=CCN6CCC43C65)C2)C1 (stereo not drawn) [bis[β-(4-desacetyl VLB C-3 carboxamido)ethyl]ether] | 7.21 | 5.13 | 
CCC12CN3CCc4c([nH]c5ccccc45)C(C(=O)OC)(c4cc5c(cc4OC)N(C)C4C(O)(C(=O)NCCSSCCNC(=O)C6(O)C(O)C7(CC)C=CCN8CCC9(c%10cc(C%11(C(=O)OC)CC%12CN(CCc%13c%11[nH]c%11ccccc%13%11)CC%11(CC)OC%12%11)c(OC)cc%10N(C)C69)C87)C(O)C6(CC)C=CCN7CCC54C76)CC(C3)C1O2 (stereo not drawn) [bis[β-(4-desacetylleurosine C-3 carboxamido)ethyl]disulfide] | 7.0 | 5.3 | 
CCC1(O)CC2CN(CCc3c([nH]c4ccccc34)C(C(=O)OC)(c3cc4c(cc3OC)N(C)C3C(O)(C(=O)NCCCNCCCNC(=O)C5(O)C(O)C6(CC)C=CCN7CCC8(c9cc(C%10(C(=O)OC)CC%11CN(CCc%12c%10[nH]c%10ccccc%12%10)CC(O)(CC)C%11)c(OC)cc9N(C)C58)C76)C(O)C5(CC)C=CCN6CCC43C65)C2)C1 (stereo not drawn) [bis[γ-(4-desacetyl VLB C-3 carboxamido)propyl]amine] | 7.17 | 4.98 | 10.18
CCC1(O)CC2CN(CCc3c([nH]c4ccccc34)C(C(=O)OC)(c3cc4c(cc3OC)N(C)C3C(O)(C(=O)NCCCSSCCCNC(=O)C5(O)C(O)C6(CC)C=CCN7CCC8(c9cc(C%10(C(=O)OC)CC%11CN(CCc%12c%10[nH]c%10ccccc%12%10)CC(O)(CC)C%11)c(OC)cc9N(C)C58)C76)C(O)C5(CC)C=CCN6CCC43C65)C2)C1 (stereo not drawn) [bis[γ-(4-desacetyl VLB C-3 carboxamido)propyl]disulfide] | 7.21 | 5.20 | 

Reference: patent publication US4199504A (priority 1978, dated 1980)
